# Results from patent EP0503079A1, “PYRIDAZINONE-SUBSTITUTED ETHYNYLPHENYL DERIVATIVE AND REMEDY FOR CIRCULATORY ORGAN DISEASE CONTAINING THE SAME AS ACTIVE INGREDIENT” (KAKEN PHARMACEUTICAL CO., LTD., priority 1990, dated 1992).
# What was measured:
# [1] = tested on: Slc-ddy male mice; test: Activity on hypoxia induced in decapitation of mice (gasping time); type: in vivo; parameters: dose or concentration left out as unconfirmed; settings: gasping time after decapitation, one hour after oral administration
# Description: In each group, 3 Slc-ddy male mice (4 weeks) were employed. Each test compound was suspended or dissolved in a 0.5 % methyl cellulose solution. After the concentration was adjusted, the dose became […], the solution was administered orally. One hour after the administration, mice were decapitated and gasping time was measured.
# (§1) Inhibition rate was calculated by the following formula. [formula]
# [2] = tested on: Aortae abdominalis of male Wister rats; test: Anti-norepinephrine activity on rat abdominal aorta strip preparations (auto-Magnus apparatus); settings: tension by norepinephrine (10⁻⁷M) regarded as 100
# Description: Aortae abdominalis of male Wister rats (8-12 weeks) were delivered and cut in spiral-shape to be strip preparations. Each test compounds was disolved in DMSO. Then, the solution was diluted with distilled water and prepared to be desired concentration. Using an auto-Magnus apparatus, as to the vasoconstriction after adding norepinephrine, contractive forces were measured under the existence of the test compounds.
# [3] = tested on: platelet aggregation; test: Inhibitory activity on platelet aggregation (turbidimetry); type: cell-based, New Zealand White male rabbits; settings: for Inhibition rate (%) ADP aggregation: 0.6 µg/mℓ ADP; for Inhibition rate (%) PAF aggregation: 5 x 10⁻⁹M PAF; for Inhibition rate (%) Collagen aggregation: 2 µg/mℓ collagen
# Description: Blood was exsanguinated from New Zealand White male rabbits weighing from 2.5 to 3.0 kg and subjected to the test. Each test compound was dissolved in ethanol and prepared to be 1 x 10⁻⁵, 1 x 10⁻⁶ or 1 x 10⁻⁷M respectively. Each aggregation response was measured by turbidimetry. Concentration of aggregating agent was 2 µg/mℓ of collagen, 0.6 µg/mℓ of adenosine 5'-diphosphate (ADP) or 5 x 10⁻⁹M of platelet aggregating factor (PAF).
# as §1
# [4] = tested on: Slc: ddy male mice; test: Activity on stress ulcers (restraint and water immersion); type: in vivo; settings: length of ulcer in glandular stomach; 30 mg/kg orally; restrained and immersed in water of 23°C for 7 hours
# Description: In each group, 5 Slc: ddy male mice (6 weeks) were employed. Each test compound was kneaded with Tween-80 followed by adding a 0.5 % solution of gum arabic to prepare 30 mg/10 mℓ solution (solution containing 1.5 % Tween-80 and 0.5 % gum arabic). Then, the preparation was administered orally in a rate of 30 mg/kg. After the administration, the mice were restrained and immersed in a water tank of 23°C for 7 hours. Then, length of the ulcer in the glandular stomach was measured by a stereoscopic microscope (x 10).
compound,measurement,setting,value
"2,6-dimethyl-3-methoxycarbonyl-5-{4-(6-oxo-1,4,5,6-tetrahydropyridazinon-3-yl)phenyl}aminocarbonyl-4-[3-{2-(4-nitro)phenyl)ethynyl]phenyl-1,4-dihydropyridine [Compound 4]",Inhibition rate (%),[1],13.2%
same,Contractive force,[2]; compound 10⁻⁷ M,13.2
same,Contractive force,[2]; compound 10⁻⁸ M,71.5
same,Contractive force,[2]; compound 10⁻⁹ M,93.2
same,Inhibition rate (%) ADP aggregation,[3]; compound 10⁻⁵ M,91%
same,Inhibition rate (%) PAF aggregation,[3]; compound 10⁻⁵ M,64%
same,Inhibition rate (%) ADP aggregation,[3]; compound 10⁻⁶ M,58%
same,Inhibition rate (%) Collagen aggregation,[3]; compound 10⁻⁶ M,92%
same,Inhibition rate (%) ADP aggregation,[3]; compound 10⁻⁷ M,22%
same,Inhibition rate (%) Collagen aggregation,[3]; compound 10⁻⁷ M,24%
"2,6-dimethyl-3-methoxycarbonyl-5-{4-(6-oxo-1,4,5,6-tetrahydropyridazinon-3-yl)phenyl}aminocarbonyl-4-{3-(1-heptyn-1-yl)}phenyl-1,4-dihydropyridine [Compound 3]",Contractive force,[2]; compound 10⁻⁷ M,12.5
same,Contractive force,[2]; compound 10⁻⁸ M,68.3
same,Contractive force,[2]; compound 10⁻⁹ M,92.4
same,Inhibition rate (%) ADP aggregation,[3]; compound 10⁻⁵ M,87%
same,Inhibition rate (%) PAF aggregation,[3]; compound 10⁻⁵ M,65%
same,Inhibition rate (%) ADP aggregation,[3]; compound 10⁻⁶ M,59%
same,Inhibition rate (%) Collagen aggregation,[3]; compound 10⁻⁶ M,93%
same,Inhibition rate (%) ADP aggregation,[3]; compound 10⁻⁷ M,18%
same,Inhibition rate (%) Collagen aggregation,[3]; compound 10⁻⁷ M,28%
"2,6-dimethyl-3-methoxycarbonyl-5-{4-(6-oxo-1,4,5,6-tetrahydropyridazinon-3-yl)phenyl}aminocarbonyl-4-{3-(6-morpholino-1-hexyn-1-yl)}phenyl-1,4-dihydropyridine [Compound 5]",Inhibition rate (%),[1],3.2%
same,Inhibition rate (%) ADP aggregation,[3]; compound 10⁻⁵ M,89%
same,Inhibition rate (%) PAF aggregation,[3]; compound 10⁻⁵ M,59%
same,Inhibition rate (%) ADP aggregation,[3]; compound 10⁻⁶ M,61%
same,Inhibition rate (%) Collagen aggregation,[3]; compound 10⁻⁶ M,89%
same,Inhibition rate (%) ADP aggregation,[3]; compound 10⁻⁷ M,20%
same,Inhibition rate (%) Collagen aggregation,[3]; compound 10⁻⁷ M,26%
"2,6-dimethyl-4-(3-ethynylphenyl)-3-methoxycarbonyl-5-{4-(4-methyl-6-oxo-1,4,5,6-tetrahydropyridazinon-3-yl)phenyl}aminocarbonyl-1,4-dihydropyridine [Compound 16]",Inhibition rate (%),[1],3.4%
same,Contractive force,[2]; compound 10⁻⁷ M,17.9
same,Contractive force,[2]; compound 10⁻⁸ M,86.4
same,Contractive force,[2]; compound 10⁻⁹ M,105.3
same,Inhibition rate (%) ADP aggregation,[3]; compound 10⁻⁵ M,88%
same,Inhibition rate (%) PAF aggregation,[3]; compound 10⁻⁵ M,66%
same,Inhibition rate (%) ADP aggregation,[3]; compound 10⁻⁶ M,65%
same,Inhibition rate (%) Collagen aggregation,[3]; compound 10⁻⁶ M,97%
same,Inhibition rate (%) ADP aggregation,[3]; compound 10⁻⁷ M,19%
same,Inhibition rate (%) Collagen aggregation,[3]; compound 10⁻⁷ M,25%
"2,6-dimethyl-4-(3-ethynylphenyl)-3-methoxycarbonyl-5-{4-(5-methyl-6-oxo-1,4,5,6-tetrahydropyridazinon-3-yl)phenyl}aminocarbonyl-1,4-dihydropyridine [Compound 15]",Inhibition rate (%),[1],5.2%
same,Contractive force,[2]; compound 10⁻⁷ M,9.8
same,Contractive force,[2]; compound 10⁻⁸ M,68.3
same,Contractive force,[2]; compound 10⁻⁹ M,85.6
same,Inhibition rate (%) ADP aggregation,[3]; compound 10⁻⁵ M,88%
same,Inhibition rate (%) PAF aggregation,[3]; compound 10⁻⁵ M,40%
same,Inhibition rate (%) ADP aggregation,[3]; compound 10⁻⁶ M,47%
same,Inhibition rate (%) Collagen aggregation,[3]; compound 10⁻⁶ M,96%
same,Inhibition rate (%) ADP aggregation,[3]; compound 10⁻⁷ M,16%
same,Inhibition rate (%) Collagen aggregation,[3]; compound 10⁻⁷ M,28%
same,Inhibition rate (%),[4],98.1%
"4-{3-(2-tert-butoxycarbonyl)ethynyl}phenyl-2,6-dimethyl-5-{4-(6-oxo-1,4,5,6-tetrahydropyridazinon-3-yl)phenyl}aminocarbonyl-3-methoxycarbonyl-1,4-dihydropyridine [Compound 8]",Inhibition rate (%),[1],12.8%
same,Inhibition rate (%),[4],75.4%
"C#Cc1ccc(OC)c(C2C(C(=O)Nc3ccc(C4=NNC(=O)CC4)cc3)=C(C)NC(C)=C2C(=O)OCC)c1 (stereo not shown) [Compound 18, 2,6-dimethyl-4-(3-ethynyl-6-methoxyphenyl)-3-ethoxycarbonyl-5-{4-(6-oxo-1,4,5,6-tetrahydropyridazinon-3-yl)phenyl}aminocarbonyl-1,4-dihydropyridine]",Contractive force,[2]; compound 10⁻⁷ M,16.3
same,Contractive force,[2]; compound 10⁻⁸ M,90.5
same,Contractive force,[2]; compound 10⁻⁹ M,111.2
same,Inhibition rate (%) ADP aggregation,[3]; compound 10⁻⁵ M,82%
same,Inhibition rate (%) PAF aggregation,[3]; compound 10⁻⁵ M,61%
same,Inhibition rate (%) ADP aggregation,[3]; compound 10⁻⁶ M,61%
same,Inhibition rate (%) Collagen aggregation,[3]; compound 10⁻⁶ M,100%
same,Inhibition rate (%) ADP aggregation,[3]; compound 10⁻⁷ M,19%
same,Inhibition rate (%) Collagen aggregation,[3]; compound 10⁻⁷ M,30%
"C#Cc1cccc(C2C(C(=O)Nc3ccc(C4=NNC(=O)CC4CC)cc3)=C(C)NC(C)=C2C(=O)OC)c1 (stereo not shown) [Compound 19, 2,6-dimethyl-4-(3-ethynylphenyl)-5-{4-(4-ethyl-6-oxo-1,4,5,6-tetrahydropyridazinon-3-yl)phenyl} aminocarbonyl-3-methoxycarbonyl-1,4-dihydropyridine]",Inhibition rate (%),[1],5.6%
same,Contractive force,[2]; compound 10⁻⁷ M,14.9
same,Contractive force,[2]; compound 10⁻⁸ M,84.9
same,Contractive force,[2]; compound 10⁻⁹ M,101.1
same,Inhibition rate (%) ADP aggregation,[3]; compound 10⁻⁵ M,83%
same,Inhibition rate (%) PAF aggregation,[3]; compound 10⁻⁵ M,38%
same,Inhibition rate (%) ADP aggregation,[3]; compound 10⁻⁶ M,63%
same,Inhibition rate (%) Collagen aggregation,[3]; compound 10⁻⁶ M,91%
same,Inhibition rate (%) ADP aggregation,[3]; compound 10⁻⁷ M,20%
same,Inhibition rate (%) Collagen aggregation,[3]; compound 10⁻⁷ M,28%
same,Inhibition rate (%),[4],92.6%
"C#Cc1cccc(C2C(C(=O)Nc3ccc(C4=NNC(=O)CC4)cc3)=C(C)NC(C)=C2C(=O)OCC)c1 (stereo not shown) [Compound 20, 2,6-dimethyl-4-(3-ethynylphenyl)-3-ethoxycarbonyl-5-{4-(6-oxo-1,4,5,6-tetrahydropyridazinon-3-yl)phenyl}aminocarbonyl-1,4-dihydropyridine]",Inhibition rate (%) ADP aggregation,[3]; compound 10⁻⁵ M,93%
same,Inhibition rate (%) PAF aggregation,[3]; compound 10⁻⁵ M,70%
same,Inhibition rate (%) ADP aggregation,[3]; compound 10⁻⁶ M,68%
same,Inhibition rate (%) Collagen aggregation,[3]; compound 10⁻⁶ M,95%
same,Inhibition rate (%) ADP aggregation,[3]; compound 10⁻⁷ M,20%
same,Inhibition rate (%) Collagen aggregation,[3]; compound 10⁻⁷ M,23%
"C#Cc1cccc(C2C(C(=O)Nc3ccc(C4=NNC(=O)CC4)cc3)=C(C)NC(C)=C2C(=O)OCCOC)c1 (stereo not shown) [Compound 22, 2,6-dimethyl-4-(3-ethynylphenyl)-3-methoxyethoxycarbonyl-5-{4-(6-oxo-1,4,5,6-tetrahydropyridazinon-3-yl)phenyl}aminocarbonyl-1,4-dihydropyridine]",Inhibition rate (%) ADP aggregation,[3]; compound 10⁻⁵ M,86%
same,Inhibition rate (%) PAF aggregation,[3]; compound 10⁻⁵ M,48%
same,Inhibition rate (%) ADP aggregation,[3]; compound 10⁻⁶ M,55%
same,Inhibition rate (%) Collagen aggregation,[3]; compound 10⁻⁶ M,100%
same,Inhibition rate (%) ADP aggregation,[3]; compound 10⁻⁷ M,14%
same,Inhibition rate (%) Collagen aggregation,[3]; compound 10⁻⁷ M,29%
"C#Cc1cccc(C2C(C(=O)Nc3ccc(C4=NNC(=O)CC4C)cc3)=C(C)NC(N)=C2C(=O)OCC)c1 (stereo not shown) [Compound 23, 2-amino-4-(3-ethynylphenyl)-3-ethoxycarbonyl-6-methyl-5-{4-(6-oxo-4-methyl-1,4,5,6-tetrahydropyridazinon-3-yl)phenyl}aminocarbonyl-1,4-dihydropyridine]",Inhibition rate (%) ADP aggregation,[3]; compound 10⁻⁵ M,86%
same,Inhibition rate (%) PAF aggregation,[3]; compound 10⁻⁵ M,47%
same,Inhibition rate (%) ADP aggregation,[3]; compound 10⁻⁶ M,56%
same,Inhibition rate (%) Collagen aggregation,[3]; compound 10⁻⁶ M,100%
same,Inhibition rate (%) ADP aggregation,[3]; compound 10⁻⁷ M,18%
same,Inhibition rate (%) Collagen aggregation,[3]; compound 10⁻⁷ M,30%
same,Inhibition rate (%),[4],91.7%
